Consider six molecules from PubChem BioAssay AID1611 (NINDS Approved Drug Screening Program, 2009).

The structures appear in SMILES notation.

In the assay the test system is human cells, HSE-luciferase heat shock reporter. As to the kind of experiment: HSE-luciferase reporter activators – cell-based (AID 1611). Conditions: measured here: HSE reporter induction potency. A general note: A reporter such as luciferase makes a cellular process visible.
Turning to `Cc1ccc(C(=O)c2ccc(CC(=O)O)n2C)cc1`, the EC50 – broadly, the concentration at which the effect is half-maximal – was 5 µM.
With `C[C@H]1O[C@@H](O[C@H]2[C@@H](O)C[C@H](O[C@H]3[C@@H](O)C[C@H](O[C@H]4CC[C@]5(C)C6CC[C@]7(C)[C@@H](C8=CC(=O)OC8)CC[C@]7(O)C6CC[C@@H]5C4)O[C@@H]3C)O[C@@H]2C)C[C@H](O)[C@@H]1O` (stereo partly specified), the EC50 came to 4 µM. The EC50 values of the last two molecules are within 1.5-fold of each other.
For `O=C1c2ccccc2C(=O)C1c1ccccc1` the value was 4.6 µM; for `CC(=O)O[C@]1(C(C)=O)CCC2C3C=C(Cl)C4=CC(=O)[C@@H]5C[C@@H]5[C@]4(C)C3CC[C@@]21C` (stereo partly specified), 4.7 µM.
In turn, `CC[C@H]1OC(=O)[C@H](C)[C@@H](O[C@H]2C[C@@](C)(OC)[C@@H](O)[C@H](C)O2)[C@H](C)[C@@H](O[C@@H]2O[C@H](C)C[C@H](N(C)C)[C@H]2O)[C@](C)(O)C[C@@H](C)CN(C)[C@H](C)[C@@H](O)[C@]1(C)O` gave an EC50 of 4.6 µM.
In turn, `CC(COc1ccccc1)NC(C)[C@H](O)c1ccc(O)cc1` (stereo partly specified) had an EC50 of 4.3 µM.
